For 23 compounds, IC50 results are on record in patent publication US9694016B2 (Novartis AG, priority 2013, dated 2017).

b-Raf (V600E), sequence (P15056 whole entry V600E): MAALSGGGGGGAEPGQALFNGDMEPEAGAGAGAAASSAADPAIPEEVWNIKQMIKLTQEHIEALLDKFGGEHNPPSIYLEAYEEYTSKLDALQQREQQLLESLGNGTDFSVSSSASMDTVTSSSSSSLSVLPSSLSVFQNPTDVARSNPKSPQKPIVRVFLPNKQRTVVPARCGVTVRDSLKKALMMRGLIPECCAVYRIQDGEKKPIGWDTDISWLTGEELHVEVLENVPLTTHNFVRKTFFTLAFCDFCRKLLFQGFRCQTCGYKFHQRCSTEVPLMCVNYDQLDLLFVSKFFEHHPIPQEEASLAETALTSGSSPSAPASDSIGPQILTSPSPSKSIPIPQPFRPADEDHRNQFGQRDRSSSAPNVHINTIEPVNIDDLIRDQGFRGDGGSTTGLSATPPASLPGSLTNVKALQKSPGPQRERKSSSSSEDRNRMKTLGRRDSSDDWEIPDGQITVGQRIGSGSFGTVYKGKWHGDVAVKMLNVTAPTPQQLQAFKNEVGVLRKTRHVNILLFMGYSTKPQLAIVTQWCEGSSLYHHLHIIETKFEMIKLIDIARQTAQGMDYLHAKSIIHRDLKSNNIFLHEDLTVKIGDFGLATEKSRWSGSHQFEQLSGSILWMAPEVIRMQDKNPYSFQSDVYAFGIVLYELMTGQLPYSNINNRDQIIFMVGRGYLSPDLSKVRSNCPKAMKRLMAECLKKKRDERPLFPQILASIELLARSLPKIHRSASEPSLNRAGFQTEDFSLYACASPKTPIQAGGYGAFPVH

The assay addresses b-Raf (V600E) (Homo sapiens (Human), UniProt P15056, V600E). Conditions: read-out: b-Raf IC-50; Table 2; AlphaScreen, 3 hours reaction. A general note: In Alpha technology, singlet oxygen from a donor bead excites a nearby acceptor bead.
As to `Cc1ncc(NC(=O)c2cccc(C(F)(F)F)c2)cc1-c1cnc(O[C@H]2CCOC2)c(N2CCOCC2)c1` [Example 310, (S)—N-(2-methyl-5′-morpholino-6′-((tetrahydrofuran-3-yl)oxy)-[3,3′-bipyridin]-5-yl)-3-(trifluoromethyl)benzamide], the IC50 was 1.8 nM.

For the compound `Cc1ncc(NC(=O)c2cccc(C(F)(F)F)c2)cc1-c1cnc(O[C@@H]2CCOC2)c(N2CCOCC2)c1` [Example 311, (R)—N-(2-methyl-5′-morpholino-6′-((tetrahydrofuran-3-yl)oxy)-[3,3′-bipyridin]-5-yl)-3-(trifluoromethyl)benzamide], the IC50 came to 2.4 nM.

`COCCOc1ncc(-c2cc(NC(=O)c3cccc(C(F)(F)F)c3)cnc2C)cc1N1CCOCC1` [Example 312, N-(6′-(2-methoxyethoxy)-2-methyl-5′-morpholino-[3,3′-bipyridin]-5-yl)-3-(trifluoromethyl)benzamide]: the IC50 amounted to 4 nM.

Turning to `Cc1ncc(NC(=O)c2ccnc(C(C)C)c2)cc1-c1cnc(OC2CCOCC2)c(N2CCOCC2)c1` [Example 313, 2-isopropyl-N-(2-methyl-5′-morpholino-6′-((tetrahydro-2H-pyran-4-yl)oxy)-[3,3′-bipyridin]-5-yl)isonicotinamide], the IC50 worked out at 7 nM.

With `Cc1ncc(NC(=O)c2ccnc(C(F)(F)F)c2)cc1-c1cnc(OC2CCOCC2)c(N2CCOCC2)c1` [Example 314, N-(2-methyl-5′-morpholino-6′-((tetrahydro-2H-pyran-4-yl)oxy)-[3,3′-bipyridin]-5-yl)-2-(trifluoromethyl)isonicotinamide], the IC50 is 6 nM.

As for `Cc1ncc(NC(=O)c2cccc(C(F)(F)F)c2)cc1-c1cnc(OC2COC2)c(N2CCOCC2)c1` [Example 315], the IC50 stood at 0.8 nM.

`Cc1ncc(NC(=O)c2cccc(C(F)(F)F)c2)cc1-c1cnc(O[C@H]2CC[C@H](O)CC2)c(N2CCOCC2)c1` [Example 316, N-(6′-(((1r,4r)-4-hydroxycyclohexyl)oxy)-2-methyl-5′-morpholino-[3,3′-bipyridin]-5-yl)-3-(trifluoromethyl)benzamide]: the IC50 was found to be 3.1 nM.

Take `Cc1ncc(NC(=O)c2cccc(C(F)(F)F)c2)cc1-c1cnc(O[C@H]2CC[C@@H](O)CC2)c(N2CCOCC2)c1` [Example 317, N-(6′-(((1s,4s)-4-hydroxycyclohexyl)oxy)-2-methyl-5′-morpholino-[3,3′-bipyridin]-5-yl)-3-(trifluoromethyl)benzamide]: the IC50 came to 1.6 nM.

For the compound `Cc1ncc(NC(=O)c2cccc(C(F)(F)F)c2)cc1-c1cnc(OC2CN(C)C2)c(N2CCOCC2)c1` [Example 321, N-(2-methyl-6′-((1-methylazetidin-3-yl)oxy)-5′-morpholino-[3,3′-bipyridin]-5-yl)-3-(trifluoromethyl)benzamide], the IC50 amounted to 24.8 nM.

Take `Cc1ncc(NC(=O)c2cccc(C(F)(F)F)c2)cc1-c1cnc(OC2CC3(COC3)C2)c(N2CCOCC2)c1` [Example 322, N-(6′-(2-oxaspiro[3.3]heptan-6-yloxy)-2-methyl-5′-morpholino-[3,3′-bipyridin]-5-yl)-3-(trifluoromethyl)benzamide]: the IC50 was determined as 1.1 nM.

For `COc1ncc(-c2cc(NC(=O)c3ccnc(C(C)C)c3)cnc2C)cc1N1CCOCC1` [Example 323, 2-isopropyl-N-(6′-methoxy-2-methyl-5′-morpholino-[3,3′-bipyridin]-5-yl)isonicotinamide], the IC50 came out at 12.9 nM.

Regarding `COc1ncc(-c2cc(NC(=O)c3ccnc(C(F)(F)F)c3)cnc2C)cc1N1CCOCC1` [Example 324, N-(6′-methoxy-2-methyl-5′-morpholino-[3,3′-bipyridin]-5-yl)-2-(trifluoromethyl)isonicotinamide], the IC50 was 7.4 nM.

On to `Cc1ncc(NC(=O)c2cccc(C(F)(F)F)c2)cc1-c1cnc(OC2CNC2)c(N2CCOCC2)c1` [Example 325, N-(6′-(azetidin-3-yloxy)-2-methyl-5′-morpholino-[3,3′-bipyridin]-5-yl)-3-(trifluoromethyl)benzamide], for which the IC50 was found to be 300 nM.

On to `Cc1ncc(NC(=O)c2cccc(C(F)(F)F)c2)cc1-c1cnc(C(C)(C)C#N)c(N2CCOCC2)c1` [Example 326, N-(6′-(2-cyanopropan-2-yl)-2-methyl-5′-morpholino-[3,3′-bipyridin]-5-yl)-3-(trifluoromethyl)benzamide], for which the IC50 amounted to 3.7 nM.

As for `Cc1ncc(NC(=O)c2cccc(C(F)(F)F)c2)cc1-c1cnc(CS(C)(=O)=O)c(N2CCOCC2)c1` [Example 327, N-(2-methyl-6′-((methylsulfonyl)methyl)-5′-morpholino-[3,3′-bipyridin]-5-yl)-3-(trifluoromethyl)benzamide], the IC50 was 3.9 nM.

Consider `Cc1ncc(N(C)C(=O)c2cccc(C(F)(F)F)c2)cc1-c1cnc(OC2CCOCC2)c(N2CCOCC2)c1` [Example 328, N-methyl-N-(2-methyl-5′-morpholino-6′-((tetrahydro-2H-pyran-4-yl)oxy)-[3,3′-bipyridin]-5-yl)-3-(trifluoromethyl)benzamide], for which the IC50 came to 62.4 nM.

Consider `CCN(C(=O)c1cccc(C(F)(F)F)c1)c1cnc(C)c(-c2cnc(OC3CCOCC3)c(N3CCOCC3)c2)c1` [Example 329, N-ethyl-N-(2-methyl-5′-morpholino-6′-((tetrahydro-2H-pyran-4-yl)oxy)-[3,3′-bipyridin]-5-yl)-3-(trifluoromethyl)benzamide], for which the IC50 is 1100 nM.

For `CCCN(C(=O)c1cccc(C(F)(F)F)c1)c1cnc(C)c(-c2cnc(OC3CCOCC3)c(N3CCOCC3)c2)c1` [Example 330, N-(2-methyl-5′-morpholino-6′-((tetrahydro-2H-pyran-4-yl)oxy)-[3,3′-bipyridin]-5-yl)-N-propyl-3-(trifluoromethyl)benzamide], the IC50 amounted to 2400 nM.

Consider `CCn1cc(-c2cc(NC(=O)c3ccnc(C(C)(C)C#N)c3)cnc2C)cc(N2CCOCC2)c1=O` [Example 332, 2-(2-cyanopropan-2-yl)-N-(1′-ethyl-2-methyl-5′-morpholino-6′-oxo-1′,6′-dihydro-[3,3′-bipyridin]-5-yl)isonicotinamide], for which the IC50 came to 23.2 nM.

As for `Cc1ncc(NC(=O)c2cccc(C(F)(F)F)c2)cc1-c1cc(N2CCOCC2)c(=O)n(CCC#N)c1` [Example 333, N-(1′-(2-cyanoethyl)-2-methyl-5′-morpholino-6′-oxo-1′,6′-dihydro-[3,3′-bipyridin]-5-yl)-3-(trifluoromethyl)benzamide], the IC50 is 11.4 nM.

As to `Cc1ccc(NC(=O)c2ccnc(C(C)(F)F)c2)cc1-c1cc(N2CCOCC2)c(=O)n(CCC#N)c1` [Example 334, N-(3-(1-(2-cyanoethyl)-5-morpholino-6-oxo-1,6-dihydropyridin-3-yl)-4-methylphenyl)-2-(1,1-difluoroethyl)isonicotinamide], the IC50 was 2.3 nM.

For `Cc1ccc(NC(=O)c2ccnc(C(C)(C)C#N)c2)cc1-c1cc(N2CCOCC2)c(=O)n(CCC#N)c1` [Example 335, N-(3-(1-(2-cyanoethyl)-5-morpholino-6-oxo-1,6-dihydropyridin-3-yl)-4-methylphenyl)-2-(2-cyanopropan-2-yl)isonicotinamide], the IC50 was 4.4 nM.

On to `Cc1ccc(NC(=O)c2cccc(C(F)F)c2)cc1-c1cc(N2CCOCC2)c(=O)n(CCC#N)c1` [Example 336, N-(3-(1-(2-cyanoethyl)-5-morpholino-6-oxo-1,6-dihydropyridin-3-yl)-4-methylphenyl)-3-(difluoromethyl)benzamide], for which the IC50 was 5.5 nM.
